Results published in patent US9120812B2, “Pyrimidooxazocine derivatives as mTOR-inhibitors” (SANOFI, priority 2012, dated 2015).
pIC50: −log10 of the molar value. Like-named read-outs stand apart in the source and are kept apart here.

Assays:
[1] = molecular target: mTOR (human recombinant aa mTOR 1360-2549) (Homo sapiens (Human), UniProt P42345); experiment: mTOR enzymatic test by TR-FRET (phosphorylation of GFP-4EBP1); assay type: biochemical
Outline: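 After a 30 min room-temperature kinase reaction, EDTA (10 mM final) and Tb-labelled phospho-Thr46 antibody (2 nM final) were added and incubated 60 min. Energy transfer from Tb to phosphorylated GFP-4EBP1 was read at 340 nm excitation, emissions 490/520 nm. Values derive from the 520/490 fluorescence ratio.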

PI3Kα (p110α/p85α) = PI3Kα (p110α/p85α) (Homo sapiens (Human), UniProt P42336); experiment: PI3Kα enzymatic test by measuring the consumption of ATP; assay type: biochemical
Chain of PI3Kα (p110α/p85α) (P42336 whole entry): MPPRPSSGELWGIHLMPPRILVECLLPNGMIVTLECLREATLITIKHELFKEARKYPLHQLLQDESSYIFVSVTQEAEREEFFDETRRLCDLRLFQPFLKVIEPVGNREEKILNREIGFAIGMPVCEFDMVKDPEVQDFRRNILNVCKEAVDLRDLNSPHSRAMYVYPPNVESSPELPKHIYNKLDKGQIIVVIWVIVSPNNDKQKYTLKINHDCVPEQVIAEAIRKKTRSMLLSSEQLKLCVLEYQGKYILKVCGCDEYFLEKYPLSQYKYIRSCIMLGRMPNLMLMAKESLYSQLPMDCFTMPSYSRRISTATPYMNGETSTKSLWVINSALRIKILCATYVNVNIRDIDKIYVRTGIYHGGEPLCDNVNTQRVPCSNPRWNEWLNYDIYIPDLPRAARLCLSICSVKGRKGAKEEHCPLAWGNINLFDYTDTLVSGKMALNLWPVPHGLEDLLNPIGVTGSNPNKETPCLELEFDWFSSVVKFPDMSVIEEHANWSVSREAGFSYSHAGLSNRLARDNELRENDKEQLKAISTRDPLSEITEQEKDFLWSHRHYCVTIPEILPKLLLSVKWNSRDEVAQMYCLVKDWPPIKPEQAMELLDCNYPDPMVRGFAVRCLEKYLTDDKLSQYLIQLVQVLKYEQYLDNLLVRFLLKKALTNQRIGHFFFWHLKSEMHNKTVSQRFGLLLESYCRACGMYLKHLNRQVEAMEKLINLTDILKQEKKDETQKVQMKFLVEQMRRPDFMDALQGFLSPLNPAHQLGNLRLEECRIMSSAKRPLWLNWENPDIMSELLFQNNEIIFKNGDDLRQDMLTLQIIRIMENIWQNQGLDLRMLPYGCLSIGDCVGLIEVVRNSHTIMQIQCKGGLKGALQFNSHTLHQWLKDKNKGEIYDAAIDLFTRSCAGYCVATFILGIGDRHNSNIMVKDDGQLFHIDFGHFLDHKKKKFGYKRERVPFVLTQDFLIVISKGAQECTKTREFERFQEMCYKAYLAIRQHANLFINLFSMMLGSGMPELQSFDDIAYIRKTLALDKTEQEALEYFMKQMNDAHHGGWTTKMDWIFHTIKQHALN
Chain of PI3Kα (p110α/p85α) (P27986 whole entry partner): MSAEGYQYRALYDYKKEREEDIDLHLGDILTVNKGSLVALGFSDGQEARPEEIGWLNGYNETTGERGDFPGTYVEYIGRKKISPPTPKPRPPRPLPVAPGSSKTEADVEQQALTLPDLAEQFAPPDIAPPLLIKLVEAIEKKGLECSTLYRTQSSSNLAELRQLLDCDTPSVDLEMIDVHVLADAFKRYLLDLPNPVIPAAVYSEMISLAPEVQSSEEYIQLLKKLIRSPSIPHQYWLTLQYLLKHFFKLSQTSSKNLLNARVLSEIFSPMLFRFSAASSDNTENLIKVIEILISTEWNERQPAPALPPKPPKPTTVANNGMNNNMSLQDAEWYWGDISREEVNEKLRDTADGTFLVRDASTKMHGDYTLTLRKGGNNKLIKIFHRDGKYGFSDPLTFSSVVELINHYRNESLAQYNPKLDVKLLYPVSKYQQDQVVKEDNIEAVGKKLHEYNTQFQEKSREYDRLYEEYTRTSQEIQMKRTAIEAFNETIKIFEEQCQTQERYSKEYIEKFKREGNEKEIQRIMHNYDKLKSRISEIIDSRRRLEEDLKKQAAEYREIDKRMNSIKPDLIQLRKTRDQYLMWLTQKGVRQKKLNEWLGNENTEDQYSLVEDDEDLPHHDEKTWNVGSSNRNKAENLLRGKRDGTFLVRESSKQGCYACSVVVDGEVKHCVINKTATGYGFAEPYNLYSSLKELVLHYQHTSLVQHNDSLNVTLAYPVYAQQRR
Outline: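 ATP consumption read out by KinaseGlo luminescence after a 90 min reaction of 1.7 μg/ml PI3Kα (p110α/p85α) with 2 μM ATP and 50 μM PIP2, buffered at pH 7.5 (Tris, 10 mM MgCl2, 1 mM EGTA, 0.03% Chaps, 1 mM DTT). Threefold dilution series over ≥10 000-fold range yield IC50.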

U87MG tumour cells = experiment: Test of in vitro proliferation of U87MG tumour cells; assay type: cell-based; settings: Homo sapiens, U-87 MG, 72 h; for pIC50: U87MG cells, 72 hours, read-out: U87 Cell Proliferation IC50
Experimental: Model 4: Test of in vitro Proliferation of U87MG Tumour Cells.
The cell growth is determined with the reagent CellTiter 96 AQueous One Solution Cell Proliferation Assay from Promega (Cat. No. G3581).

Akt-pS473 in U87MG cells = settings: Homo sapiens, U-87 MG; for inhibition at 3 µM: read-out: U87 Akt-pS473 % Inhibition
[2] = read-out: U87 Akt-pS473 % Inhibition or IC50, nM (IC50), U87MG cells

Chain of mTOR (human recombinant aa mTOR 1360-2549) (P42345 1360-2549): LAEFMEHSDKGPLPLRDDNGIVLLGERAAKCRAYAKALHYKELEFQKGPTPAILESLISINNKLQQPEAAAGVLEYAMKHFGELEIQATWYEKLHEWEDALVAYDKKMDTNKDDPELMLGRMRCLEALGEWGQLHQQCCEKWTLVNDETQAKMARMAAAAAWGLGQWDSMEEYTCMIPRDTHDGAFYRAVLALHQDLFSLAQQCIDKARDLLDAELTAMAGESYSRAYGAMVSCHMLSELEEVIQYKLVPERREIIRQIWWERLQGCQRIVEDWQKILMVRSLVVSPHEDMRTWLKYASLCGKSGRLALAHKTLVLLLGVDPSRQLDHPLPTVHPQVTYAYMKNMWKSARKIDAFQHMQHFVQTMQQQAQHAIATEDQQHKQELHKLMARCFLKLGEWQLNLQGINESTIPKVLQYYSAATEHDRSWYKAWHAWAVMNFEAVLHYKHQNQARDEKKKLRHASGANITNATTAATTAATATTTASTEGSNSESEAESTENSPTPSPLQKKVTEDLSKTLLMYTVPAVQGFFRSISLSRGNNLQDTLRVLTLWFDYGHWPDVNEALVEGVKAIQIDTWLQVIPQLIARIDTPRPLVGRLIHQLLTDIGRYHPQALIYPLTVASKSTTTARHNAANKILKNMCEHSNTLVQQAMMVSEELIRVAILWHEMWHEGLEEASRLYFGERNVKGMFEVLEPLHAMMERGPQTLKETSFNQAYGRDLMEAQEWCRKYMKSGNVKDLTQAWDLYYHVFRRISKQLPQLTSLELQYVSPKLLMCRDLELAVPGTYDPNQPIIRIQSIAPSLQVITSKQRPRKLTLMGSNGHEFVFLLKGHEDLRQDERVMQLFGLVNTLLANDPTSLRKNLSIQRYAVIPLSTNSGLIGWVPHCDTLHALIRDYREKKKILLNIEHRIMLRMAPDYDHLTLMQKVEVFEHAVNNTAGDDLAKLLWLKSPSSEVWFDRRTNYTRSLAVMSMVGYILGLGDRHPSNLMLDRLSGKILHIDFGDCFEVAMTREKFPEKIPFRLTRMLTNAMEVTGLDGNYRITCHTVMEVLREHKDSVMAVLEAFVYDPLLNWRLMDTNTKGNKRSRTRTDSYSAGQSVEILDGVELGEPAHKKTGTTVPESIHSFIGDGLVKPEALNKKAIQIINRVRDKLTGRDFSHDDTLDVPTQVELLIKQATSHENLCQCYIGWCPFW

| SMILES | pIC50 [1] | PI3Ka IC50 (PI3Kα (p110α/p85α)) [nM] | pIC50 (U87MG tumour cells) | inhibition at 3 µM (Akt-pS473 in U87MG cells) [%] | IC50 (U87MG tumour cells; read-out: U87 Cell Proliferation IC50, nM) [nM] | IC50 (Akt-pS473 in U87MG cells; read-out: U87 Akt-pS473 % Inhibition or IC50, nM (IC50)) [nM] | IC50 (Akt-pS473 in U87MG cells; [2]) [nM] |
| --- | --- | --- | --- | --- | --- | --- | --- |
| CCN1CC(C)(C)Oc2nc(N3CCOC[C@@H]3C)nc(-c3ccc(NC(=O)Nc4ccccn4)c(F)c3)c2C1=O [Example 192, 1-{4-[6-Ethyl-8,8-dimethyl-2-((S)-3-methylmorpholin-4-yl)-5-oxo-5,6,7,8-tetrahydro-9-oxa-1,3,6-triazabenzocyclohepten-4-yl]-2-fluorophenyl}-3-pyridin-2-ylurea] | 7.54 | 1310 | 5.75 | 82 | – | – | – |
| CCN1CC(C)(C)Oc2nc(N3CCOC[C@@H]3C)nc(-c3ccc(NC(=O)Oc4cccc(OC)c4)cc3)c2C1=O [Example 193, {4-[6-Ethyl-8,8-dimethyl-2-((S)-3-methylmorpholin-4-yl)-5-oxo-5,6,7,8-tetrahydro-9-oxa-1,3,6-triazabenzocyclohepten-4-yl]phenyl}carbamic acid 3-methoxyphenyl ester] | 6.01 | 9440 | – | – | 4660 | > 1000 | – |
| CCN1CC(C)(C)Oc2nc(N3CC4CCC(C3)O4)nc(-c3ccc(NC(=O)Nc4cn(C)cn4)c(F)c3)c2C1=O [Example 194, 1-{4-[6-Ethyl-8,8-dimethyl-2-(8-oxa-3-azabicyclo[3.2.1]oct-3-yl)-5-oxo-5,6,7,8-tetrahydro-9-oxa-1,3,6-triazabenzocyclohepten-4-yl]-2-fluorophenyl}-3-(1-methyl-1H-imidazol-4-yl)urea] | 7.57 | 1230 | 5.67 | 62 | – | – | – |
| CCN1CC(C)(C)Oc2nc(N3CC4CCC(C3)O4)nc(-c3ccc(NC(=O)Nc4ccc(N5CCN(C)CC5)nc4)c(F)c3)c2C1=O [Example 195, 1-{4-[6-Ethyl-8,8-dimethyl-2-(8-oxa-3-azabicyclo[3.2.1]oct-3-yl)-5-oxo-5,6,7,8-tetrahydro-9-oxa-1,3,6-triazabenzocyclohepten-4-yl]-2-fluorophenyl}-3-[6-(4-methylpiperazin-1-yl)pyridin-3-yl]urea] | 7.21 | 6800 | 7.24 | – | – | – | 45 |
| CCN1CC(C)(C)Oc2nc(N3CCOC[C@@H]3C)nc(-c3ccc(NC(=O)Nc4ccc(OC)nc4)c(C)c3)c2C1=O [Example 196, 1-{4-[6-Ethyl-8,8-dimethyl-2-((S)-3-methylmorpholin-4-yl)-5-oxo-5,6,7,8-tetrahydro-9-oxa-1,3,6-triazabenzocyclohepten-4-yl]-2-methylphenyl}-3-(6-methoxypyridin-3-yl)urea] | 6.56 | 7470 | 5.30 | 60 | – | – | – |
| COCCN1CC(C)(C)Oc2nc(N3CC4CCC(C3)O4)nc(-c3ccc(NC(=O)Nc4ccc(OC)nc4)cc3)c2C1=O [Example 197, 1-{4-[6-(2-Methoxyethyl)-8,8-dimethyl-2-(8-oxa-3-azabicyclo[3.2.1]oct-3-yl)-5-oxo-5,6,7,8-tetrahydro-9-oxa-1,3,6-triazabenzocyclohepten-4-yl]phenyl}-3-(6-methoxypyridin-3-yl)urea] | 6.93 | >10000 | 6.28 | – | – | – | 150 |
| CCN1CC(C)(C)Oc2nc(N3CC4CCC(C3)O4)nc(-c3ccc(NC(=O)Nc4cnc(OC)cn4)cc3)c2C1=O [Example 198, 1-{4-[6-Ethyl-8,8-dimethyl-2-(8-oxa-3-azabicyclo[3.2.1]oct-3-yl)-5-oxo-5,6,7,8-tetrahydro-9-oxa-1,3,6-triazabenzocyclohepten-4-yl]phenyl}-3-(5-methoxypyrazin-2-yl)urea] | 7.24 | >10000 | 6.50 | – | – | – | 44 |
| CCN1CC(C)(C)Oc2nc(N3CCOC[C@@H]3C)nc(-c3ccc(NC(=O)Nc4ccnc(C)c4)c(F)c3)c2C1=O [Example 199, 1-{4-[6-Ethyl-8,8-dimethyl-2-((S)-3-methylmorpholin-4-yl)-5-oxo-5,6,7,8-tetrahydro-9-oxa-1,3,6-triazabenzocyclohepten-4-yl]-2-fluorophenyl}-3-(2-methylpyridin-4-yl)urea] | 7.41 | 174 | 7.49 | – | – | – | 10 |
| CCN1CC(C)(C)Oc2nc(N3CC4CCC(C3)O4)nc(-c3ccc(NC(=O)Nc4ccc(N5CCOCC5)nc4)c(F)c3)c2C1=O [Example 200, 1-{4-[6-Ethyl-8,8-dimethyl-2-(8-oxa-3-azabicyclo[3.2.1]oct-3-yl)-5-oxo-5,6,7,8-tetrahydro-9-oxa-1,3,6-triazabenzocyclohepten-4-yl]-2-fluorophenyl}-3-(6-morpholin-4-ylpyridin-3-yl)urea] | 7.28 | >10000 | 6.97 | – | – | – | 9 |
| COCCN1CC(C)(C)Oc2nc(N3CCOC[C@@H]3C)nc(-c3ccc(NC(=O)Nc4cnn(C)c4)cc3)c2C1=O [Example 201, 1-{4-[6-(2-Methoxyethyl)-8,8-dimethyl-2-((S)-3-methylmorpholin-4-yl)-5-oxo-5,6,7,8-tetrahydro-9-oxa-1,3,6-triazabenzocyclohepten-4-yl]phenyl}-3-(1-methyl-1H-pyrazol-4-yl)urea] | 7.32 | 813 | 6.05 | – | – | – | 230 |
| CCN1CC(C)(C)Oc2nc(N3CCOC[C@@H]3C)nc(-c3ccc(NC(=O)Nc4ccccc4F)cc3)c2C1=O [Example 202, 1-{4-[6-Ethyl-8,8-dimethyl-2-((S)-3-methylmorpholin-4-yl)-5-oxo-5,6,7,8-tetrahydro-9-oxa-1,3,6-triazabenzocyclohepten-4-yl]phenyl}-3-(2-fluorophenyl)urea] | 7.72 | 213 | 7.14 | – | – | – | 5 |
| CCN1CC(C)(C)Oc2nc(N3CC4CCC(C3)O4)nc(-c3ccc(NC(=O)Nc4ccc(CN5CCCCC5)cc4)cc3)c2C1=O [Example 203, 1-{4-[6-Ethyl-8,8-dimethyl-2-(8-oxa-3-azabicyclo[3.2.1]oct-3-yl)-5-oxo-5,6,7,8-tetrahydro-9-oxa-1,3,6-triazabenzocyclohepten-4-yl]phenyl}-3-(4-piperidin-1-ylmethylphenyl)urea] | 7.02 | 9610 | 7.37 | – | – | – | 111 |
| CCN1CC(C)(C)Oc2nc(N3CCOC[C@@H]3C)nc(-c3ccc(NC(=O)Nc4cccc(OC(F)F)c4)cc3)c2C1=O [Example 204, 1-(3-Difluoromethoxyphenyl)-3-{4-[6-ethyl-8,8-dimethyl-2-((S)-3-methylmorpholin-4-yl)-5-oxo-5,6,7,8-tetrahydro-9-oxa-1,3,6-triazabenzocyclohepten-4-yl]phenyl}urea] | 7.21 | 468 | 7.13 | – | – | – | 18 |
| CCN1CC(C)(C)Oc2nc(N3CC4CCC(C3)O4)nc(-c3ccc(NC(=O)Nc4ccc(N5CCN(C)CC5)cc4)cc3)c2C1=O [Example 205, 1-{4-[6-Ethyl-8,8-dimethyl-2-(8-oxa-3-azabicyclo[3.2.1]oct-3-yl)-5-oxo-5,6,7,8-tetrahydro-9-oxa-1,3,6-triazabenzocyclohepten-4-yl]phenyl}-3-[4-(4-methylpiperazin-1-yl)phenyl]urea] | 7.20 | 3740 | 7.66 | – | – | – | 13 |
